Assay results taken from patent US7582651B2, “Pyrrolopyridine derivative and use thereof” (Takeda Pharmaceutical Company Limited, priority 2002, dated 2009).

Columns and labels:
SD male rats = assay: Measurement of bladder volume (saline infusion under urethane anesthesia); assay type: in vivo, rat; conditions: sc, 12 hours after administration
Protocol: Measurement of Mouse Bladder Volume
Six or seven of 7 weeks old SD male rats were used in a group in this test. At 12 hours after the subcutaneous administration of the drug, the abdomen of rat was cut open under urethane anesthesia (1.2 g/kg, ip) to expose the bladder. Physiological saline solution was infused into the bladder at the rate of 0.1 ml/minutes to check excretion reflection. All of the urine was drained off, and the physiological saline solution was infused again, and then, the bladder volume of mouse was calculated by measuring the time to urination.

ICR male mice [1] = assay: Tail-flick test (55° C. water bath); assay type: in vivo, mouse; conditions: po
Protocol: Eight of 5 weeks old ICR male mice were used in a group in this test. The tail of the mouse was dipped by about 2 cm from the end into water in a water bath warmed to 55° C., and the latency to lift the tail up was measured. The latency was previously measured before the administration of the drug, and the mouse having the latency of 2 seconds or less was selected and used in the test. The drug was administered orally, and the latency was measured after 3, 6 and 24 hours. Cut-off time was set to 5 seconds. The drug was suspended in 0.5% methylcellulose, and the dose was 20 ml/kg BW.

[2] = tested on: vanilloid receptor-1 (VR1) expressed in CHO-K1 cells (RVR1/CHO and HVR1/CHO strains); assay: Evaluation of compounds based on cell death (survival rate of VR1-expressing CHO strains); set-up: species or system rat, human; conditions: 1 μM test compound, 3 hours reaction, Alama Blue, cultured 20 hours; strain (RVR1/CHO or HVR1/CHO) not stated
Protocol: CHO-K1 cells (ATCC No.: CCL-61) were grown in a 150 cm^2 of a cell culture flask (Corning Coaster) using a Ham's F12 medium (GIBCO BRL) containing 10% fetal bovine serum (GIBCO BRL) and were collected from the flask by using 0.5 g/L trypsin-0.2 g/L EDTA (GIBCO BRL). The cells were washed with PBS (GIBCO BRL), centrifuged (1000 rpm, 5 minutes) and suspended in PBS. Then, the DNA was introduced into the cells using Gene Pulser (Bio-Rad Laboratories Inc.) under the following conditions. Namely, 1×10^7 cells and 15 μg of plasmid pRVR1 for expression of rat VR1 were added into a cuvette having a 0.4 cm of gap, and electroporation was carried out at an electric voltage of 0.25 kV and a capacitance of 960 μF. Subsequently, the cells were transferred into the Ham's F12 medium containing 10% fetal bovine serum, and incubated for 24 hours. The cells were then collected, centrifuged and suspended in Ham's F12 medium containing 10% fetal bovine serum and Geneticin (GIBCO BRL) at a concentration of 500 μg/ml. […]
Subsequently, the resulting Geneticin-resistant strains were cultured in the 96-well plates (Corning Coaster). […] Subsequently, the radioactivity was measured with TopCount (Packard Industry Company, Inc.) to select RVR1/CHO strains of which calcium concentration in the cells is increased when capsaicin is added thereto. […]

ICR male mice [3] = assay: Mouse eye dropping test (stimulating and desensitizing activity, capsaicin challenge); assay type: in vivo; conditions: 0.01 ml dropped to the eye; capsaicin (0.3 μg) 1 hour after initial treatment; desensitizing activity
Protocol: Eight of 4 to 5 weeks old ICR male mice (Japan SLC Inc.) were used in a group in this test. 0.01 ml of the drug was added dropwise to the eye, and the time when the mouse continued to close the eye was measured. The stimulation of the drug was evaluated as positive when the time is more than 10 seconds, and as negative when the time is 10 seconds or less. At 1 hour after the initial treatment, a solution of capsaicin (0.3 μg) was added dropwise to the eye to evaluate whether the stimulation is or not, and examined the desensitizing activity of the compound. The stimulating and desensitizing activity of the drug were calculated as a value of ED50. The drug was dissolved in a mixture of 10% ethanol, 20% Tween 80 and 70% physiological saline solution.

Structure (SMILES) | Bladder capacity (SD male rats; 3 mg/kg) [mL] | Bladder capacity (SD male rats; 10 mg/kg) [mL] | Latency (ICR male mice [1]; 10 mg/kg, 3 h after administration) [s] | Latency (ICR male mice [1]; 10 mg/kg, 6 h after administration) [s] | Latency (ICR male mice [1]; 10 mg/kg, 24 h after administration) [s] | Latency (ICR male mice [1]; 10 mg/kg, Pre (before administration)) [s] | Latency (ICR male mice [1]; 30 mg/kg, 3 h after administration) [s] | Latency (ICR male mice [1]; 30 mg/kg, 6 h after administration) [s] | Latency (ICR male mice [1]; 30 mg/kg, 24 h after administration) [s] | Latency (ICR male mice [1]; 30 mg/kg, Pre (before administration)) [s] | survival rate of the cells [2] [%] | ED50 (ICR male mice [3]) [µg]
Cc1cc(C)c2c(C#N)c(/C=C/C(=O)NC3CCOC(C)(C)C3)n(C3CCc4ccccc43)c2n1 (stereo not drawn) [Example 51, (2E)-3-[3-cyano-1-(indan-1-yl)-4,6-dimethyl-1H-pyrrolo[2,3-b]pyridin-2-yl]-N-(2,2-dimethyltetrahydro-2H-pyran-4-yl)acrylamide] | 1.76 ± 0.37 | 1.57 ± 0.23 | 0.85 ± 0.10 | 0.64 ± 0.04 | 0.78 ± 0.04 | 0.55 ± 0.02 | 2.31 ± 1.13 | 2.04 ± 1.15 | 3.36 ± 1.02 | 0.70 ± 0.07 | – | –
Cc1cc(C)c2c(C#N)c(/C=C/C(=O)N[C@@H]3CCOC(C)(C)C3)n([C@H]3CCCc4ccccc43)c2n1 [Example 74, (2E)-3-{3-cyano-4,6-dimethyl-1-[(1S)-1,2,3,4-tetrahydronaphthalen-1-yl]-1H-pyrrolo[2,3-b]pyridin-2-yl}-N-[(4R)-2,2-dimethyltetrahydro-2H-pyran-4-yl]prop-2-enamide] | – | – | – | – | – | – | – | – | – | – | 2 | 0.55
